# Where “and” joins values, the source holds several entries; their conditions need not be identical. Equal entries are not always repeated. Where two headings read alike, the source gives them in different places.
# Legend:
# CDK12–cyclin K and DDB1 = target: T1, CDK12–cyclin K and DDB1 (Homo sapiens, UniProt Q16531+Q9NYV4, K965R); assay: TR-FRET ternary complex formation assay (compound titration); assay type: binding
# T1 construct: His6–CDK12 (a.a. 713–1,052); full-length or beta-propeller B domain deletion (ΔBPB: a.a. 396–705 deleted) constructs of His6–DDB1ΔBPB, StrepII–Avi–DDB1, or His6–Spy–DDB1; made in house; host or cells: Trichoplusia ni High Five insect cells (baculovirus)
# T1 sequence (Q9NYV4 713-1052 K965R): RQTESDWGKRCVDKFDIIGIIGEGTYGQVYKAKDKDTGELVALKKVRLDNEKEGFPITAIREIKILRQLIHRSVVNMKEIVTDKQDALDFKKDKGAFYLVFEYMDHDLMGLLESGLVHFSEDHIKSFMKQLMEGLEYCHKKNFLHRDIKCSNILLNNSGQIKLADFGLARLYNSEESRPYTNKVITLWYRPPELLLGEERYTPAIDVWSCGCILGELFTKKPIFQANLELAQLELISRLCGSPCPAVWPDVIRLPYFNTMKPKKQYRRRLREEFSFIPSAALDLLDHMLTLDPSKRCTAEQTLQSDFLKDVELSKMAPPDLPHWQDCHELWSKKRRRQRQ
# T1 sequence (O75909 1-267 partner): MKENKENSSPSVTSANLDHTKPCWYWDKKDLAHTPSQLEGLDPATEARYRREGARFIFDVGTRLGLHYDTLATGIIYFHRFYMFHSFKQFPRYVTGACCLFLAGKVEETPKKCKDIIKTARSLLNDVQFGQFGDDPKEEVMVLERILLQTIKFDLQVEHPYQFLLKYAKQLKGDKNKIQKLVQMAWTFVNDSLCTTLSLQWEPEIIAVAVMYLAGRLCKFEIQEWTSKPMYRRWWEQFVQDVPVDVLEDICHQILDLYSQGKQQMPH
# T1 sequence (Q16531 whole entry): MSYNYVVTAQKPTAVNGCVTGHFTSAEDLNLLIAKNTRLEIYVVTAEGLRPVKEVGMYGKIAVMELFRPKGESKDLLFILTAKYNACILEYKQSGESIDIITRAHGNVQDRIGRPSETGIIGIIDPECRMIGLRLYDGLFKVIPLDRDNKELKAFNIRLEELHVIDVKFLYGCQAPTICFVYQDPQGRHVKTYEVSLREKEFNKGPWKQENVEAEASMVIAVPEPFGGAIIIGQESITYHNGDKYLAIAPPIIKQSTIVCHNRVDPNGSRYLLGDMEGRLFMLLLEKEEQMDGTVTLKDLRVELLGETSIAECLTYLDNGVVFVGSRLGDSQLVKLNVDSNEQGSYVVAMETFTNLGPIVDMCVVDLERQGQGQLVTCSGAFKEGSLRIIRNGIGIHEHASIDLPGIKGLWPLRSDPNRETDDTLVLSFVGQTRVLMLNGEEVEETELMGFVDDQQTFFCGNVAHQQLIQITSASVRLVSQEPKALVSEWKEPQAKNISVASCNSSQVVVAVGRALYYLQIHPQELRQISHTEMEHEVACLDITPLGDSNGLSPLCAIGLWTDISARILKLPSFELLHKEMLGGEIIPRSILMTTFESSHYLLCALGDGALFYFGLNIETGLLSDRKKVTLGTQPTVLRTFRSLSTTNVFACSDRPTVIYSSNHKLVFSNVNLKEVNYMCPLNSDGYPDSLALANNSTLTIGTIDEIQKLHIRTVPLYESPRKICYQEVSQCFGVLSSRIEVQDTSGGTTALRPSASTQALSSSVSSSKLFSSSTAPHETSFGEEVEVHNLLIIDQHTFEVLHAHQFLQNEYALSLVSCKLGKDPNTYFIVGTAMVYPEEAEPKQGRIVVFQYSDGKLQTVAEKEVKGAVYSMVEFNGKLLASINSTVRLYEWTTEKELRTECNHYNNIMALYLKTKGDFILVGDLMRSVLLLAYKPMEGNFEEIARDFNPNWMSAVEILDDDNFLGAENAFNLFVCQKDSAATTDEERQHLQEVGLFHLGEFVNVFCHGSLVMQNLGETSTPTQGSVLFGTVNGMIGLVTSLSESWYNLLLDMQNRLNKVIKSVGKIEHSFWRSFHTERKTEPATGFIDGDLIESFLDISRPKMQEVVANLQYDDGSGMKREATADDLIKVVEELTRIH
# Procedure, shortened: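 Read-out used a 70 μs delay to cut background fluorescence; TR-FRET signal taken as the 520 nm/490 nm emission ratio.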
# [1] = test system: cyclin K–eGFP degradation reporter; assay: Cyclin K reporter stability analysis (dual-color cyclin K–eGFP reporter); assay type: cell-based, human; conditions: source data sheet correlations; read-out: DC50
# Procedure, shortened: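 HEK293T–Cas9 cells carrying the cyclin K–eGFP reporter were seeded at 1 × 10^6 ml^−1 and exposed to drug or DMSO for 5 h. Flow cytometry gave geometric means of eGFP and mCherry in round, mCherry-positive cells. The eGFP/mCherry ratio was normalized to the mean of three DMSO controls.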
# HEK293T cells = assay: Drug sensitivity assay (CellTiter-Glo viability) with or without MLN4924 pretreatment; assay type: cell-based, human; conditions: Supplementary Table 2; for EC50: Homo sapiens, HEK-293T, HEK293T viability, 72 h, compound alone, read-out: Cellular assays EC50; for Toxicity rescue: MLN4924-mediated cytotoxicity rescue, 10 µM used where n.d.
# Procedure, shortened: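 HEK293T–Cas9 cells at 0.15 × 10^6 ml^−1 were treated with DMSO or 100 nM MLN4924 before plating. Test drugs were added 2 h later and exposure lasted 3 days. Viability was read by CellTiter-Glo luminescence and expressed relative to DMSO controls.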
# [2] = in vitro complex formation, 50 nM CDK12–cyclin K, 100 nM DDB1, text and figures, read-out: TR-FRET EC50
# [3] = sheet MOESM7, read-out: log TR-FRET EC50 (converted)
# [4] = source data sheet correlations, read-out: TR-FRET EC50
Structure (SMILES),TR-FRET signal at compound concentration 0.468 nM (CDK12–cyclin K and DDB1; raw titration data),TR-FRET signal at compound concentration 2.16 nM (CDK12–cyclin K and DDB1; raw titration data),TR-FRET signal at compound concentration 3.6 nM (CDK12–cyclin K and DDB1; raw titration data),TR-FRET signal at compound concentration 7.92001 nM (CDK12–cyclin K and DDB1; raw titration data),TR-FRET signal at compound concentration 15.84 nM (CDK12–cyclin K and DDB1; raw titration data),TR-FRET signal at compound concentration 30.96 nM (CDK12–cyclin K and DDB1; raw titration data),TR-FRET signal at compound concentration 62.6401 nM (CDK12–cyclin K and DDB1; raw titration data),TR-FRET signal at compound concentration 125.28 nM (CDK12–cyclin K and DDB1; raw titration data),TR-FRET signal at compound concentration 244.8 nM (CDK12–cyclin K and DDB1; raw titration data),TR-FRET signal at compound concentration 993.601 nM (CDK12–cyclin K and DDB1; raw titration data),TR-FRET signal at compound concentration 2001.6 nM (CDK12–cyclin K and DDB1; raw titration data),EC50 (CDK12–cyclin K and DDB1; [2]) [nM],EC50 (CDK12–cyclin K and DDB1; [3]) [nM],EC50 (CDK12–cyclin K and DDB1; [4]) [nM],DC50 [1] [nM],EC50 (HEK293T cells) [nM],Toxicity rescue (HEK293T cells) [%],further results
CC[C@H](CO)Nc1nc(NCc2ccc(-c3cccnc3)cc2)c2ncn(C(C)C)c2n1 [DS45],0.2618 and 0.2852,0.3231 and 0.3368,0.3927 and 0.4029,0.6005 and 0.5751,0.9407 and 0.892,1.641 and 1.433,2.534 and 2.304,3.191 and 3.0985,3.469 and 3.534,3.64 and 3.842,3.5487 and 3.801,45 ± 2,45.1,45.1,36,242,1302,–
CC(C)n1cnc2c(NCc3ccc(-c4ccccn4)cc3)nc(NCc3c(Cl)cncc3Cl)nc21 [DS48],0.2749 and 0.2901,0.3467 and 0.3488,0.4769 and 0.4631,0.7379 and 0.6676,1.149 and 0.9938,1.778 and 1.5795,2.574 and 2.417,3.287 and 3.206,3.511 and 3.701,3.896 and 4.02,3.877 and 4.06,46 ± 2,46,46,366,907,313,–
COc1ccccc1CCNC(=O)CNc1nc(NCc2ccc(-c3ccccn3)cc2)c2ncn(C(C)C)c2n1 [DS50],–,–,–,–,–,–,–,–,–,–,–,–,1920,1920,3570,> 10000,0,"TR-FRET signal at compound concentration 4.68 nM (CDK12–cyclin K and DDB1; compound concentration 4.68 nM, raw titration data): 0.2095 and 0.2212; TR-FRET signal at compound concentration 21.6 nM (CDK12–cyclin K and DDB1; compound concentration 21.6 nM, raw titration data): 0.2225 and 0.2323; TR-FRET signal at compound concentration 36 nM (CDK12–cyclin K and DDB1; compound concentration 36 nM, raw titration data): 0.253 and 0.2736; TR-FRET signal at compound concentration 79.2001 nM (CDK12–cyclin K and DDB1; compound concentration 79.2001 nM, raw titration data): 0.3096 and 0.3199; TR-FRET signal at compound concentration 158.4 nM (CDK12–cyclin K and DDB1; compound concentration 158.4 nM, raw titration data): 0.4094 and 0.4186; TR-FRET signal at compound concentration 309.6 nM (CDK12–cyclin K and DDB1; compound concentration 309.6 nM, raw titration data): 0.5758 and 0.5879; TR-FRET signal at compound concentration 626.401 nM (CDK12–cyclin K and DDB1; compound concentration 626.401 nM, raw titration data): 0.9565 and 0.9048; TR-FRET signal at compound concentration 1252.8 nM (CDK12–cyclin K and DDB1; compound concentration 1252.8 nM, raw titration data): 1.567 and 1.497; TR-FRET signal at compound concentration 2448 nM (CDK12–cyclin K and DDB1; compound concentration 2448 nM, raw titration data): 2.482 and 2.457; TR-FRET signal at compound concentration 9936.01 nM (CDK12–cyclin K and DDB1; compound concentration 9936.01 nM, raw titration data): 3.626 and 3.7316; TR-FRET signal at compound concentration 20016 nM (CDK12–cyclin K and DDB1; compound concentration 20016 nM, raw titration data): 3.761 and 3.946"

# — PMC10746543, “Design principles for cyclin K molecular glue degraders” (Nature Chemical Biology, 2023)
